Active and inactive are the calls of the source.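 Rule for the calls: active = compounds with a fitted EC50 of 33 micromolar or lower for the MEP2 GFP signal; inactive = the rest.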
system: S. cerevisiae MEP2-GFP strain, flow cytometry fluorescence, 3 h; assay: yeast MEP2-GFP fusion level changes, TOR pathway – flow cytometry, kMESF, KU SAR set 2, dose response (AID 504468); conditions: not given

EC50 | SMILES
34.2 µM (inactive) | CNc1nc(N)c([N+](=O)[O-])c(Nc2cccc(Oc3ccccc3)c2)n1
81.8 µM (inactive) | CCOC(=O)c1c(N)nc(NC)nc1Nc1cccc(F)c1
189 µM (inactive) | CCNc1nc(NC2CCCCC2)c([N+](=O)[O-])c(N2CCOCC2)n1
107 µM (inactive) | Cc1cc(Nc2cc(-c3ccccc3)nc(NCc3ccccc3)n2)n[nH]1

system: not listed separately; assay: as above; conditions: S. cerevisiae MEP2-GFP strain, flow cytometry fluorescence, 3 h; at 100 µM (top of the series)

SMILES | GFP fluorescence (kMESF)
CNc1nc(N)c([N+](=O)[O-])c(Nc2cccc(Br)c2)n1 | 7.2 kMESF (inactive)
CNc1nc(NC)c([N+](=O)[O-])c(Nc2cccc(Cl)c2)n1 | 4.45 kMESF (inactive)
CNc1nc(N)c([N+](=O)[O-])c(Nc2ccccc2F)n1 | 4.66 kMESF (inactive)
CNc1nc(N)c([N+](=O)[O-])c(Nc2ccccc2Br)n1 | 4.59 kMESF (inactive)
CNc1nc(N)c(C(=O)c2ccc(C)c(C)c2)c(Nc2cccc(Cl)c2)n1 | 4.45 kMESF (inactive)
CCNc1nc(N)c([N+](=O)[O-])c(Nc2cccc(Cl)c2)n1 | 12 kMESF (inactive)
CNc1nc(N)c([N+](=O)[O-])c(Nc2cccc(OC)c2)n1 | 7.13 kMESF (inactive)

same assay, conditions: S. cerevisiae MEP2-GFP strain, flow cytometry fluorescence, 3 h; at 300 µM (top of the series)

SMILES | GFP fluorescence (kMESF)
CNc1nc(N)cc(Oc2cccc(Cl)c2)n1 | 2.25 kMESF (inactive)
CNc1nc(N)cc(Nc2cccc(Cl)c2)n1 | 2.73 kMESF (inactive)
CNc1nc(N)cc(Nc2ccccc2F)n1 | 2.73 kMESF (inactive)
COc1ccccc1-c1cc(Nc2cc(C)[nH]n2)nc(NCc2ccccc2)n1 | 2.59 kMESF (inactive)
O=[N+]([O-])c1c(NC2CCCCC2)nc(NCc2ccccc2)nc1N1CCOCC1 | 2.32 kMESF (inactive)
COC(=O)c1cccc(-c2cc(Nc3cc(C)[nH]n3)nc(NCc3ccccc3)n2)c1 | 2.46 kMESF (inactive)
COc1cccc(-c2cc(Nc3cc(C)[nH]n3)nc(NCc3ccccc3)n2)c1 | 2.66 kMESF (inactive)
Cc1cc(Nc2cc(Nc3ccccc3)nc(NCc3ccccc3)n2)n[nH]1 | 2.46 kMESF (inactive)

Reference: PubChem BioAssay AID504468 (NMMLSC, 2011)
